{"source": "paper PMC12431658", "about": "“Versatile roles of rubredoxin reductase of Pseudomonas aeruginosa TBCF10839 in virulence and stress protection” (PLOS Pathogens, 2025)", "target": "T1, rubredoxin reductase RubB (also RubR, RdxR) (Pseudomonas aeruginosa, UniProt Q9HTK9)", "T1 construct": "gene alkT; gene 1,155 bp", "T1 sequence (Q9HTK9 whole entry)": "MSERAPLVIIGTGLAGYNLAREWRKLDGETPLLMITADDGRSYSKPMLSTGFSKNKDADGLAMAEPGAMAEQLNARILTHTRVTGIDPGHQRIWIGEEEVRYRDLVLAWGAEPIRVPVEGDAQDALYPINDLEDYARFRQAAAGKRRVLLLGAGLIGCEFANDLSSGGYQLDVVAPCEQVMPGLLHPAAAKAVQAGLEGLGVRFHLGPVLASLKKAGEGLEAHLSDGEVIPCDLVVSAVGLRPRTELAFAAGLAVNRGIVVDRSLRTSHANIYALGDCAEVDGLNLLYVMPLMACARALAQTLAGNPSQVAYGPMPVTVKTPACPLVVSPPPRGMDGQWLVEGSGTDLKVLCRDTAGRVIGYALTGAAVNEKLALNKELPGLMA", "assay": "stopped-flow FAD fluorescence (excitation […] nm)", "format": "biochemical", "details": "pH 8.0, 0.1 M NaCl, 25 °C; reduction of bound FAD; no RubA2"}
{"smiles": "NC(=O)C1=CN([C@@H]2O[C@H](COP(=O)(O)OP(=O)(O)OC[C@H]3O[C@@H](n4cnc5c(N)ncnc54)[C@H](O)[C@@H]3O)[C@@H](O)[C@H]2O)C=CC1", "note": "[NADH]", "values": [{"measurement": "stopped-flow FAD fluorescence (excitation 436 nm)", "value": "after the addition of NADH the FAD fluorophore was reduced within milliseconds to FADH2"}]}
